Source: ChEMBL document CHEMBL5620413, “Novel pterostilbene derivatives ameliorate heart failure by reducing oxidative stress and inflammation through regulating Nrf2/NF-κB signaling pathway” (Eur J Med Chem, 2023)
Activity calls are given as the source filed them.

Assays:
Mus musculus [1] = test: Protection against cardiac dysfunction C57BL/6J mouse model assessed as increase in DOX-reduced cardiac Nrf2 expression at 7 mg/kg, ip administered daily for 4 weeks by Western blot analysis; type: functional, organism-based
Mus musculus [2] = test: Protection against cardiac dysfunction C57BL/6J mouse model assessed as increase in DOX-reduced cardiac GPX1 expression at 7 mg/kg, ip administered daily for 4 weeks by Western blot analysis; type: functional, organism-based
RAW264.7 [3] = test: Inhibition of ROS generation in mouse RAW264.7 cells assessed as increase in DOX-reduced CAT expression upto 10 uM preincubated for 1 hr followed by DOX treatment for 12 hrs by Western blot analysis; type: functional, cell-based; details: time 13.0 hrs
Mus musculus [4] = test: Protection against cardiac dysfunction C57BL/6J mouse model assessed as decrease in DOX-induced serum CK level at 7 mg/kg, ip administered daily for 4 weeks; type: functional, organism-based
H9c2 [5] = test: Inhibition of ROS generation in rat H9c2 cells assessed as increase in DOX-reduced SOD expression upto 10 uM preincubated for 1 hr followed by DOX treatment for 12 hrs by Western blot analysis; type: functional, cell-based; details: time 13.0 hrs
RAW264.7 [6] = test: Inhibition of ROS generation in mouse RAW264.7 cells assessed as increase in DOX-reduced SOD expression upto 10 uM preincubated for 1 hr followed by DOX treatment for 12 hrs by Western blot analysis; type: functional, cell-based; details: time 13.0 hrs
H9c2 [7] = test: Antiinflammatory activity against rat H9c2 cells assessed as decrease in DOX-induced IL-6 expression upto 10 uM preincubated for 1 hr followed by DOX treatment for 12 hrs by Western blot analysis; type: functional, cell-based; details: time 13.0 hrs
Mus musculus [8] = test: Protection against cardiac dysfunction C57BL/6J mouse model assessed as decrease in DOX-induced TGF-beta1 expression at 7 mg/kg, ip administered daily for 4 weeks by Western blot analysis; type: functional, organism-based
H9c2 [9] = test: Inhibition of ROS generation in rat H9c2 cells assessed as increase in DOX-reduced GPX1 expression upto 10 uM preincubated for 1 hr followed by DOX treatment for 12 hrs by Western blot analysis; type: functional, cell-based; details: time 13.0 hrs
RAW264.7 [10] = test: Antiinflammatory activity in mouse RAW264.7 cells assessed as decrease in LPS-induced NO production at 10 uM preincubated for 1 hr followed by LPS treatment for 24 hrs by Griess reagent based assay; type: functional, cell-based; details: time 25.0 hrs
Mus musculus [11] = test: Protection against cardiac dysfunction C57BL/6J mouse model assessed as decrease in DOX-induced myocardial cell injury at 7 mg/kg, ip administered daily for 4 weeks by H and E staining based analysis; type: functional, organism-based
Mus musculus [12] = test: Antiinflammatory activity in cardiac dysfunction C57BL/6J mouse model assessed as decrease in DOX-induced NF-kappaB expression at 7 mg/kg, ip administered daily for 4 weeks by Western blot analysis; type: functional, organism-based
Mus musculus [13] = test: Inhibition of DOX-induced cardiac ROS generation in cardiac dysfunction C57BL/6J mouse model at 7 mg/kg, ip administered daily for 4 weeks by DHE staining based analysis; type: functional, organism-based
Mus musculus [14] = test: Protection against cardiac dysfunction C57BL/6J mouse model assessed as increase in DOX-reduced cardiac NQO1 expression at 7 mg/kg, ip administered daily for 4 weeks by Western blot analysis; type: functional, organism-based
Mus musculus [15] = test: Protection against cardiac dysfunction C57BL/6J mouse model assessed as decrease in DOX-induced accumulation of inflammatory cells at 7 mg/kg, ip administered daily for 4 weeks by H and E staining based analysis; type: functional, organism-based
Mus musculus [16] = test: Antiinflammatory activity in cardiac dysfunction C57BL/6J mouse model assessed as decrease in DOX-induced TNF-alpha expression at 7 mg/kg, ip administered daily for 4 weeks by Western blot analysis; type: functional, organism-based
Mus musculus [17] = test: Protection against cardiac dysfunction C57BL/6J mouse model assessed as increase in DOX-reduced heart rate at 7 mg/kg, ip administered daily for 4 weeks by echocardiography; type: functional, organism-based
Mus musculus [18] = test: Antiinflammatory activity in cardiac dysfunction C57BL/6J mouse model assessed as decrease in DOX-induced IL-1beta expression at 7 mg/kg, ip administered daily for 4 weeks by Western blot analysis; type: functional, organism-based
Mus musculus [19] = test: Antiinflammatory activity in cardiac dysfunction C57BL/6J mouse model assessed as decrease in DOX-induced IL-6 expression at 7 mg/kg, ip administered daily for 4 weeks by Western blot analysis; type: functional, organism-based
RAW264.7 [20] = test: Antiinflammatory activity against mouse RAW264.7 cells assessed as decrease in LPS-induced TNF-alpha expression upto 10 uM preincubated for 1 hr followed by LPS treatment for 24 hrs by Western blot analysis; type: functional, cell-based; details: time 25.0 hrs
RAW264.7 [21] = test: Antiinflammatory activity in mouse RAW264.7 cells assessed as decrease in LPS-induced COX2 expression preincubated for 1 hr followed by LPS treatment for 24 hrs by Western blot analysis; type: functional, cell-based; details: dose <= 10.0 µM, time 25.0 hrs
H9c2 [22] = test: Inhibition of ROS generation in rat H9c2 cells assessed as increase in LPS-reduced Nrf2 expression upto 10 uM preincubated for 1 hr followed by LPS treatment for 24 hrs by Western blot analysis; type: functional, cell-based; details: time 25.0 hrs
RAW264.7 [23] = test: Inhibition of ROS generation in mouse RAW264.7 cells assessed as increase in LPS-reduced Nrf2 expression upto 10 uM preincubated for 1 hr followed by LPS treatment for 24 hrs by Western blot analysis; type: functional, cell-based; details: time 25.0 hrs
Mus musculus [24] = test: Protection against cardiac dysfunction C57BL/6J mouse model assessed as decrease in DOX-induced myocardial fibrosis at 7 mg/kg, ip administered daily for 4 weeks by Sirius Red staining based analysis; type: functional, organism-based
RAW264.7 [25] = test: Antiinflammatory activity against mouse RAW264.7 cells assessed as decrease in LPS-induced IL-6 expression upto 10 uM preincubated for 1 hr followed by LPS treatment for 24 hrs by Western blot analysis; type: functional, cell-based; details: time 25.0 hrs
Mus musculus [26] = test: Protection against cardiac dysfunction C57BL/6J mouse model assessed as decrease in DOX-induced serum HBDH level at 7 mg/kg, ip administered daily for 4 weeks; type: functional, organism-based
Mus musculus [27] = test: Protection against cardiac dysfunction C57BL/6J mouse model assessed as increase in DOX-reduced cardiac CAT expression at 7 mg/kg, ip administered daily for 4 weeks by Western blot analysis; type: functional, organism-based
H9c2 [28] = test: Antiinflammatory activity against rat H9c2 cells assessed as decrease in LPS-induced NF-kappaB phosphorylation upto 10 uM preincubated for 1 hr followed by LPS treatment for 24 hrs by Western blot analysis; type: functional, cell-based; details: time 25.0 hrs
Mus musculus [29] = test: Protection against cardiac dysfunction C57BL/6J mouse model assessed as decrease in DOX-induced serum ALT level at 7 mg/kg, ip administered daily for 4 weeks; type: functional, organism-based
Mus musculus [30] = test: Protection against cardiac dysfunction C57BL/6J mouse model assessed as increase in DOX-reduced ratio of heart weight to body weight at 7 mg/kg, ip administered daily for 4 weeks; type: functional, organism-based
Mus musculus [31] = test: Protection against cardiac dysfunction C57BL/6J mouse model assessed as increase in DOX-reduced LVEF at 7 mg/kg, ip administered daily for 4 weeks by echocardiography; type: functional, organism-based
H9c2 [32] = test: Inhibition of ROS generation in rat H9c2 cells preincubated for 1 hr followed by LPS treatment for 24 hrs by DCFH-DA dye based analysis; type: functional, cell-based; details: dose <= 10.0 µM, time 25.0 hrs
RAW264.7 [33] = test: Antiinflammatory activity in mouse RAW264.7 cells assessed as decrease in LPS-induced iNOS expression preincubated for 1 hr followed by LPS treatment for 24 hrs by Western blot analysis; type: functional, cell-based; details: dose <= 10.0 µM, time 25.0 hrs

CCCCOc1ccc(/C=C/c2cc(OC)cc(OC)c2C2CC(C)=NN2C(C)=O)cc1 (stereo not drawn)
active: Activity (Mus musculus [1]) | Activity (Mus musculus [2]) | inhibition (RAW264.7 [3]) | Activity (Mus musculus [4]) | inhibition (H9c2 [5]) | inhibition (RAW264.7 [6]) | Activity (H9c2 [7]) | Activity (Mus musculus [8]) | inhibition (H9c2 [9]) | Activity (RAW264.7 [10]) | Activity (Mus musculus [11]) | Activity (Mus musculus [12]) | inhibition (Mus musculus [13]) | Activity (Mus musculus [14]) | Activity (Mus musculus [15]) | Activity (Mus musculus [16]) | Activity (Mus musculus [17]) | Activity (Mus musculus [18]) | Activity (Mus musculus [19]) | Activity (RAW264.7 [20]) | Activity (RAW264.7 [21]) Dose-Dependent Effect | inhibition (H9c2 [22]) | inhibition (RAW264.7 [23]) | Activity (Mus musculus [24]) | Activity (RAW264.7 [25]) | Activity (Mus musculus [26]) | Activity (Mus musculus [27]) | Activity (H9c2 [28]) | Activity (Mus musculus [29]) | Activity (Mus musculus [30]) | Activity (Mus musculus [31]) | inhibition (H9c2 [32]) Dose-Dependent Effect | Activity (RAW264.7 [33]) Dose-Dependent Effect
